Marks after values point to notes of the source that are not given here.
Experiments:
Format in all cases: cell-based
[1] = test system: normal human preadipocytes; assay: Differentiation of normal human preadipocytes in depleted differentiation medium (Bodipy lipid droplet labeling, image analysis); details: 15 days
Procedure: Normal human preadipocytes resulting from abdominal surgical waste from a donor were cultured in monolayer until confluence in the presence of a culture medium comprising PBM-2 (Preadipocyte Basal Medium-2) supplied by the company Lonza, an amount of 10% by volume of FBS (Fetal Bovine Serum) for 100% of the volume of the culture medium, L-glutamine and gentamicin.
Their differentiation into adipocytes was induced by adding a “depleted” differentiation medium comprising a mixture of insulin, dexamethasone, IBMX (isobutyl methyl xanthine) and indomethacin, and used at a dilution rate of 1/10th with respect to a “standard” differentiation medium.
A differentiation phase is also carried out on human preadipocytes as described above and cultured in monolayers as described above, but in the presence of a “standard” differentiation medium, namely a nondiluted mixture of insulin, dexamethasone, IBMX (IsoButyl Methyl Xanthine) and indomethacin, so as to obtain a “control differentiated in standard medium”.
Once the maturity of the preadipocytes was reached, namely after 15 days following the induction described above, the cultures were rinsed with a PBS (Phosphate Buffered Saline) buffer and the intracytoplasmic lipid vesicles were labeled using a specific viable fluorescent probe, Bodipy (500 μg/ml). The nuclei of the differentiated preadipocytes were also labeled using a Hoechst reagent (bisbenzimide), which is also fluorescent, at a concentration of 2 μg/ml, sold by the company Sigma.
Three photographs per well were taken using a Zeiss Axiovert™ 25 inverted epifluorescence microscope fitted with an ×20 objective.
For each test of products tested, including controls, the images obtained with the inverted epifluorescence microscope are analyzed using the Lucia software, allowing quantification of the Bodipy fluorescent label, in order to carry out: • a measurement of the lipid droplet surface area (Sd), • a measurement of the number of differentiated cells (Nc), and • a measurement of the number of total cell nuclei (Nnc).
For each test, the level of adipocyte differentiation (D) is then calculated by relating the lipid droplet surface area to the number of total nuclei according to the following formula: (D)=(lipid droplet surface area)/(number of total cell nuclei).
The following will thus be calculated: • the level of adipocyte differentiation of the control differentiated in depleted medium (subsequently denoted Ddm); • the level of adipocyte differentiation of the control differentiated in standard or complete medium (subsequently denoted Dcm); • the level of adipocyte differentiation of the products tested (N-hexadecanoyl isoleucine, hexadecanoic acid, isoleucine, hexadecanoic acid/isoleucine mixture in a ratio by weight of 65/35) (subsequently denoted Dpt).
For each product tested, the following are then calculated:
a) the percentage restoration of adipocyte differentiation (subsequently denoted RAD) according to the following formula: RAD=[(Dpt−Ddm)/(Dcm−Ddm)]×100
b) the adipocyte surface area (AS) according to the following formula: (AS)=[(lipid droplet surface area Sd)/(number of differentiated cells Nc)]×100
c) the percentage increase in adipocyte surface area (subsequently denoted IAS) relative to the control treated with depleted medium according to the formula: IAS=[adipocyte surface area of the product (ASpt)/adipocyte surface area of the control treated with the depleted medium (ASdm)]×100.
A statistical analysis is then carried out on the data (D) and (AS) using a two-sided Student's test assuming unequal variances. Thus, the population of each of the experimental conditions tested for the parameters (D) and (AS) is compared with the population of the condition of differentiation in the presence of the depleted differentiation medium. An error threshold (p) is set at 5%.

[2] = test system: human preadipocytes of passage R7; assay: Adipocyte phenotype restoration in artificially aged (passage R7) preadipocytes, protocol 1 (Oil-Red-O, OD 540 nm); details: protocol 1: product present during differentiation; 10 μg/ml on a dry extract basis
Excerpt: (§1) The term “passage” or “subculturing” or “amplification” denotes here the operation, known to those skilled in the art, consisting in amplifying the cells in question successively by means of culture cycles. Thus, the term “preadipocytes of passage RO” denotes the preadipocytes which have undergone no passage operation as defined above. The term “preadipocytes of passage R1” denotes the preadipocytes which have undergone a single passage operation as defined above. The term “preadipocytes of passage R7” denotes the preadipocytes which have undergone 7 successive passage operations under identical operating conditions.
(§2) • i) Human preadipocytes of passage R1 were cultured in monolayer for 5 days until confluence. […]
The optical density thus measured for the young control is denoted “ODR1”. […]

[3] = test system: human preadipocytes of passage R7; assay: Adipocyte phenotype restoration in artificially aged (passage R7) preadipocytes, protocol 2; details: protocol 2: product present during 5-day culture until confluence; 10 μg/ml on a dry extract basis
Excerpt: as §1, §2
The steps of sections a) and b) of protocol 1 are carried out using human preadipocytes of passage R1 and human preadipocytes of passage R7 so as to obtain a “young” control and an “aged” control and the associated optical densities ODR1 and ODR7. The effect of the N-hexadecanoyl isoleucine on human preadipocytes of passage R7 is evaluated according to a variant of the procedure of protocol 1, the first step of which consists in culturing the human preadipocytes of passage R7 in a monolayer for 5 days until confluence in the presence of N-hexadecanoyl isoleucine. […]

[4] = test system: human preadipocytes of passage R7; assay: Adipocyte phenotype restoration in artificially aged (passage R7) preadipocytes, protocol 3; details: protocol 3: product present during culture and differentiation; 10 μg/ml on a dry extract basis
Excerpt: as §1, §2
The effect of the N-hexadecanoyl isoleucine on human preadipocytes of passage R7 is evaluated according to a variant of the procedure of protocol 2, the first step of which consists in culturing the human preadipocytes of passage R7 in a monolayer for 5 days until confluence in the presence of N-hexadecanoyl isoleucine. […]

[5] = 1.7 μg/ml on a dry extract basis

Compound	IAS (percentage increase in adipocyte surface area relative to control in depleted medium = 100%) ([1]; 3.3 μg/ml)	RAD (percentage restoration of adipocyte differentiation) ([1]; 3.3 μg/ml) [%]	IAS (percentage increase in adipocyte surface area relative to control in depleted medium = 100%) ([1]; 6.5 μg/ml) [%]	RAD (percentage restoration of adipocyte differentiation) ([1]; 6.5 μg/ml) [%]	IAS (percentage increase in adipocyte surface area relative to control in depleted medium = 100%) [1, 5] [%]	RAD (percentage restoration of adipocyte differentiation) [1, 5] [%]	PRR (phenotype restoration rate) [2] [%*]	PRR (phenotype restoration rate) [3] [%*]	PRR (phenotype restoration rate) [4] [%*]
CCCCCCCCCCCCCCCC(=O)O [Hexadecanoic acid, hexadecanoic acid]	41%*	<10	62	<10					
CC[C@H](C)[C@H](N)C(=O)O [Isoleucine, isoleucine]	117%	<10			57	<10			
CCCCCCCCCCCCCCCC(=O)N[C@H](C(=O)O)[C@@H](C)CC [N-hexadecanoyl isoleucine]							16	17	30
